The values below come from paper PMC7017353, “Delineating the Molecular Basis of the Calmodulin–bMunc13-2 Interaction by Cross-Linking/Mass Spectrometry—Evidence for a Novel CaM Binding Motif in bMunc13-2” (Cells, 2020).

The experiment relates to recombinant CaM. Description: Photoaffinity labeling (PAL)-based competition assay. Conditions: photoprobe segment-C-Bpa 5 µM, CaM 5 µM, 200 µM Ca2+, SDS-PAGE and MALDI-TOF-MS; for molar excess of competitor for complete suppression of photoadduct formation (full displacement of photoprobe): competitor 0–250 µM, 2 h RT; for suppression of photoadduct formation (in words): competitor up to 50-fold molar excess. The format is binding. The method, then:
Photoreactive peptides were synthesized by Fmoc chemistry using the amino acid derivative Fmoc-para-benzoylphenylalanine (Bpa, Novabiochem). Photoaffinity labeling (PAL)-based competition experiments with recombinant CaM were performed and analyzed as described previously. Briefly, CaM (5 µM) and segment-C-Bpa (5 µM) or segment-CS-Bpa (5 µM) were incubated in 50 mM HEPES (pH 7.2), 150 mM KCl, 5 mM DTT for 2 h at RT in the dark with (200 µM Ca^2+) or without (2 mM EGTA) calcium, and in the presence of increasing concentrations (0–250 μM) of competitor peptides. Following UV irradiation, photoadduct formation was visualized and quantified by SDS-PAGE and linear matrix-assisted laser desorption/ionization–time-of-flight–mass spectrometry (MALDI-TOF-MS).

Where a SMILES comes first, the peptide text is derived from it.

In the case of “719 CINNFKNVLREKRLRQKKLLQELV 742 [segment-CS]”, the “molar excess of competitor for complete suppression of photoadduct formation (full displacement of photoprobe)” value (from here on “molar excess of competitor”) is recorded as over 50 fold molar excess and the “suppression of photoadduct formation (in words)” value (shortened to “suppression … (in words)”) is reported as “could not suppress photoadduct formation”.
Consider `CC[C@H](C)[C@H](NC(=O)[C@H](CS)NC(=O)[C@H](CCCCN)NC(=O)[C@H](CC(N)=O)NC(=O)[C@H](CC(C)C)NC(=O)[C@H](Cc1ccc(O)cc1)NC(=O)[C@@H](NC(=O)[C@@H](NC(=O)[C@H](CCC(=O)O)NC(=O)[C@H](C)NC(=O)[C@H](CS)NC(=O)[C@H](CC(=O)O)NC(=O)[C@H](CCC(N)=O)NC(=O)[C@H](CCC(=O)O)NC(=O)[C@H](CC(C)C)NC(=O)[C@H](CO)NC(=O)[C@H](CC(C)C)NC(=O)[C@H](CCCCN)NC(C)=O)[C@@H](C)O)[C@@H](C)CC)C(=O)N[C@@H](CC(N)=O)C(=O)N[C@@H](CC(N)=O)C(=O)N[C@@H](Cc1ccccc1)C(=O)N[C@@H](CCCCN)C(=O)N[C@@H](CC(N)=O)C(=O)N[C@H](C(=O)N[C@@H](CC(C)C)C(=O)N[C@@H](CCCNC(=N)N)C(=O)N[C@@H](CCC(=O)O)C(=O)N[C@@H](CCCCN)C(=O)N[C@@H](CCCNC(=N)N)C(=O)N[C@@H](CC(C)C)C(=O)N[C@@H](CCCNC(=N)N)C(=O)N[C@@H](CCC(N)=O)C(=O)N[C@@H](CCCCN)C(=O)N[C@@H](CCCCN)C(=O)N[C@@H](CC(C)C)C(=O)N[C@@H](CC(C)C)C(=O)N[C@@H](CCC(N)=O)C(=O)N[C@@H](CCC(=O)O)C(=O)N[C@@H](CC(C)C)C(=O)N[C@H](C(N)=O)C(C)C)C(C)C` [Segment V709D] (Ac-KLSLEQDCAETIYLNKCINNFKNVLREKRLRQKKLLQELV-NH2; N-terminus and C-terminus assumed), for which the “molar excess of competitor” value is on record as over 50 fold molar excess.
“703KLSLEQVCAETIYLNKCINNDKNVLREKRLRQKKLLQELV742 [Segment F723D, segment-C variant with F723 exchanged to aspartic acid]”: the “suppression … (in words)” value is reported as “not able to displace segment-C-Bpa at all”.
In the case of “719CINNFKNVLREKRLRQKKLLQELVQTASHLSVED742 [segment-CL]”, the “molar excess of competitor” value is on record as over 50 fold molar excess and the “suppression … (in words)” value is reported as “could not suppress photoadduct formation”.
